Results as given in US20120156185A1, “NUTRITIONAL COMPOSITIONS COMPRISING CITRUS FIBERS” (HERBAMED LTD., priority 2009, published 2012).
Where “and” joins values, the source holds several entries; their conditions need not be identical. Identical values can stand only once.

Test: Oxygen radical absorbance capacity (ORAC) assay
Description: ORAC assay for fresh orange crush and dry flake extracts was carried out following the modified procedure of the method previously described by Prior et al (Prior R L. et al. 2003. J Agric Food Chem 5, 3273-3279). This assay measures the ability of antioxidant components in test materials to inhibit the decline in disodium fluorescein (FL) fluorescence that is induced by the peroxyl radical generator 2′,2′-Azobis (2-amidinopropane) dihydrochloride (AAPH). The reaction was obtained on fluorescent plate reader (Synergy HT, Bio-Tek Instruments, Winooski, Vt., USA). The mixture contained in the final assay mixture 200 μL of total volume, FL, 120 μL, […] and AAPH, 60 μL 32 mM final concentration. All reagents were prepared with 75 mM phosphate buffer, pH 7.4. FL, phosphate buffer and samples were pre-incubated at 37° C. for 15 min. The reaction was started by the addition of AAPH. Fluorescence was measured and recorded every 1.5 min at excitation length of 485 nm and emission length of 535 nm, until the fluorescence of the last reading declined to a value of less than or equal to 5% of the first reading. Phosphate buffer was used as a blank and 2.5-40 μM trolox were used as positive control standards. The final ORAC values were calculated by using a regression equation between the trolox concentration and the net area under the FL decay curve and were expressed as trolox equivalents (TE) as μmole per 100 g of fresh weight (FW) or dry weight (DW).
In both compounds the measured inhibition time was directly proportional to the concentration of the antioxidant. In the tasted concentration range 2.5, 5.0, 10.0 μM of trolox the Tinh were 14.6, 20.9, and 25.5 respectively. For comparison Tinh for 2.5, 5.0, 10.0 μM of hesperidin were 26.8, 45.0 and 62.5 min respectively. […] In ORAC assay Tinh measures the ability of antioxidant components in test materials to inhibit the decline in disodium fluorescein (FL) fluorescence that is induced by the peroxyl radical generator 2′,2′-Azobis (2-amidinopropane) dihydrochloride (AAPH). Tinh for 10 μM of hesperidin and 10 μM of trolox were 62.5 and 23.5 min respectively. […] Higher correlation was observed between Hesperidin concentration and its antioxidant capacity.

SMILES	Tinh (inhibition time, antioxidant capacity) (2.5 μM)	Tinh (inhibition time, antioxidant capacity) (5.0 μM)	Tinh (inhibition time, antioxidant capacity) (10 μM)
COc1ccc([C@@H]2CC(=O)c3c(O)cc(O[C@@H]4O[C@H](CO[C@@H]5O[C@@H](C)[C@H](O)[C@@H](O)[C@H]5O)[C@@H](O)[C@H](O)[C@H]4O)cc3O2)cc1O [hesperidin]	26.8 min	45.0 min	62.5 min
Cc1c(C)c2c(c(C)c1O)CCC(C)(C(=O)O)O2 (stereo not drawn) [trolox, 6-hydroxy-2,5,7,8,-tetramethylchroman-2-carboxylic acid]	14.6 min	20.9 min	25.5 min and 23.5 min
